Biological target: T1, human PAR4 (Homo sapiens, UniProt Q96RI0)
T1 construct: expressed in transfected cells; host or cells: HEK293 PAR4 Clone 1.2A (BMS Arctic ID 383940)
T1 sequence (Q96RI0 18-385): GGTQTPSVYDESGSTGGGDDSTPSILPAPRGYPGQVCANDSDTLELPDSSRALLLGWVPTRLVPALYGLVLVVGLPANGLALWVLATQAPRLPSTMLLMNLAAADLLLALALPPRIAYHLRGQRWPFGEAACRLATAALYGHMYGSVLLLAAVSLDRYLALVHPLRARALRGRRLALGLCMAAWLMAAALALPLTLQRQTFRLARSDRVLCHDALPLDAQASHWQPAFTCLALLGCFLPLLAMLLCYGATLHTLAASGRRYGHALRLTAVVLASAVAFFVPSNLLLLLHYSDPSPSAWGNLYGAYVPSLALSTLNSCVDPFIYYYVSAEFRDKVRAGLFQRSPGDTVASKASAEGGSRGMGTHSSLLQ
Experiment: PAR4 FLIPR assay: antagonism of agonist-peptide-induced calcium mobilization in PAR4-expressing HEK293 cells
Type: cell-based
Settings: H-Ala-Phe(4-F)-[…]NH2-induced intracellular calcium mobilization, 11-point curves

IC50	Structure (SMILES)
0.9 nM	COCc1cnc2c(-c3nc4c(C)c(F)c(OCCOC(=O)Nc5ccc(F)nc5)cc4s3)cc(C)cc2n1 [Example 303, 2-((5-fluoro-2-(2-(methoxymethyl)-7-methylquinoxalin-5-yl)-4-methylbenzo[d]thiazol-6-yl)oxy)ethyl (6-fluoropyridin-3-yl) carbamate]
2.3 nM	COc1cnc2c(-c3nc4c(Cl)c(F)c(OCCOC(=O)Nc5ccc(F)nc5)cc4s3)cc(C)cc2n1 [Example 304, 2-((4-chloro-5-fluoro-2-(2-methoxy-7-methylquinoxalin-5-yl)benzo[d]thiazol-6-yl)oxy)ethyl (6-fluoropyridin-3-yl)carbamate]
1 nM	COCc1cnc2c(-c3nc4c(Cl)c(F)c(OCCOC(=O)Nc5ccc(F)nc5)cc4s3)cc(C)cc2n1 [Example 305, 2-((4-chloro-5-fluoro-2-(2-(methoxymethyl)-7-methylquinoxalin-5-yl)benzo[d]thiazol-6-yl)oxy)ethyl (6-fluoropyridin-3-yl)carbamate]
1 nM	CCOc1cc(C)c2nc(-c3cc(C)cc4nc(COC)cnc34)sc2c1 [Example 306]
0.9 nM	COCc1cnc2c(-c3nc4c(C)cc(OCc5ccccc5)cc4s3)cc(C)cc2n1 [Example 307, 6-(benzyloxy)-2-(2-(methoxymethyl)-7-methylquinoxalin-5-yl)-4-methylbenzo[d]thiazole]
3.6 nM	COCc1cnc2c(-c3nc4ccc(CO)cc4s3)cc(C)cc2n1 [Example 308, (2-(2-(methoxymethyl)-7-methylquinoxalin-5-yl)benzo[d]thiazol-6-yl)methanol]
3.3 nM	COCc1ccc2nc(-c3cc(C)cc4nc(COC)cnc34)sc2c1 [Example 309, 6-(methoxymethyl)-2-(2-(methoxymethyl)-7-methylquinoxalin-5-yl)benzo[d]thiazole]
9.1 nM	COCc1cnc2c(-c3nc4cc(O)c(OC)cc4s3)cc(C)cc2n1 [Example 310, 6-methoxy-2-(2-(methoxymethyl)-7-methylquinoxalin-5-yl)benzo[d]thiazol-5-ol]
93 nM	COCc1cnc2c(-c3nc4cc(OC)c(OC)cc4s3)cc(C)cc2n1 [Example 311, 5,6-dimethoxy-2-(2-(methoxymethyl)-7-methylquinoxalin-5-yl)benzo[d]thiazole]
6.7 nM	COCc1cnc2c(-c3nc4cc(CO)c(OC)cc4s3)cc(C)cc2n1 [Example 312, (6-methoxy-2-(2-(methoxymethyl)-7-methylquinoxalin-5-yl)benzo[d]thiazol-5-yl) methanol]
2.9 nM	COCc1cnc2c(-c3nc4c(OC)c(F)c(Cl)cc4s3)cc(C)cc2n1 [Example 313, 6-chloro-5-fluoro-4-methoxy-2-(2-(methoxymethyl)-7-methylquinoxalin-5-yl) benzo[d]thiazole]
10 nM	COCc1cnc2c(-c3nc4c(C5CC5)c(F)c(OC)cc4s3)cc(C)cc2n1 [Example 314, 4-cyclopropyl-5-fluoro-6-methoxy-2-(2-(methoxymethyl)-7-methylquinoxalin-5-yl)benzo[d]thiazole]
3.3 nM	CCOc1cc2sc(-c3cc(C)cc4nc(OC)cnc34)nc2c(F)c1F [Example 315, 6-ethoxy-4,5-difluoro-2-(2-methoxy-7-methylquinoxalin-5-yl)benzo[d]thiazole]
4.9 nM	COc1cnc2c(-c3nc4c(F)c(F)c(OCCNS(=O)(=O)c5cccc(F)c5)cc4s3)cc(C)cc2n1 [Example 316, N-(2-((4,5-difluoro-2-(2-methoxy-7-methylquinoxalin-5-yl)benzo[d]thiazol-6-yl)oxy)ethyl)-3-fluorobenzenesulfonamide]
4.5 nM	COCc1cnc2c(-c3nc4c(F)c(F)c(OCCNS(=O)(=O)c5cccc(F)c5)cc4s3)cc(C)cc2n1 [Example 317, N-(2-((4,5-difluoro-2-(2-(methoxymethyl)-7-methylquinoxalin-5-yl)benzo[d]thiazol-6-yl)oxy)ethyl)-3-fluorobenzenesulfonamide]
7.8 nM	COc1cnc2c(-c3nc4c(Cl)c(F)c(OCCO)cc4s3)cc(C)cc2n1 [Example 318, 2-((4-chloro-5-fluoro-2-(2-methoxy-7-methylquinoxalin-5-yl)benzo[d]thiazol-6-yl)oxy)ethanol]
7.3 nM	COCc1cnc2c(-c3nc4c(C)c(C)c(OCC(C)(C)O)cc4s3)cc(C)cc2n1 [Example 319, 1-((2-(2-(methoxymethyl)-7-methylquinoxalin-5-yl)-4,5-dimethylbenzo[d]thiazol-6-yl)oxy)-2-methylpropan-2-ol]

The next lines start with the compound.

Structure (SMILES)	IC50
COCc1cnc2c(-c3nc4c(Cl)c(F)c(O)cc4s3)cc(C)cc2n1 [Example 291, 4-chloro-5-fluoro-2-(2-(methoxymethyl)-7-methylquinoxalin-5-yl) benzo[d]thiazol-6-ol]	11 nM
COCc1cnc2c(-c3nc4c(Cl)c(F)c(OCC(=O)OC)cc4s3)cc(C)cc2n1 [Example 292, methyl 2-((4-chloro-5-fluoro-2-(2-(methoxymethyl)-7-methylquinoxalin-5-yl)benzo[d]thiazol-6-yl)oxy)acetate]	0.8 nM
COCc1cnc2c(-c3nc4c(Cl)c(F)c(OCCO)cc4s3)cc(C)cc2n1 [Example 293, 2-((4-chloro-5-fluoro-2-(2-(methoxymethyl)-7-methylquinoxalin-5-yl)benzo[d]thiazol-6-yl)oxy)ethanol]	1 nM
COc1cnc2c(-c3nc4c(C)c(F)c(OC)cc4s3)cc(C)cc2n1 [Example 294, 5-fluoro-6-methoxy-2-(2-methoxy-7-methylquinoxalin-5-yl)-4-methylbenzo[d]thiazole]	5.2 nM
COCc1cnc2c(-c3nc4c(C)c(F)c(OC)cc4s3)cc(C)cc2n1 [Example 295, 5-fluoro-6-methoxy-2-(2-(methoxymethyl)-7-methylquinoxalin-5-yl)-4-methylbenzo[d]thiazole]	0.7 nM
COCc1cnc2c(-c3nc4c(C)c(C)c(OCC(=O)OC)cc4s3)cc(C)cc2n1 [Example 296, methyl 2-((2-(2-(methoxymethyl)-7-methylquinoxalin-5-yl)-4,5-dimethylbenzo[d]thiazol-6-yl)oxy)acetate]	1.2 nM
COCc1cnc2c(-c3nc4c(C)c(C)c(OCCO)cc4s3)cc(C)cc2n1 [Example 297, 2-((2-(2-(methoxymethyl)-7-methylquinoxalin-5-yl)-4,5-dimethylbenzo[d]thiazol-6-yl)oxy)ethanol]	5.7 nM
COCc1cnc2c(-c3nc4c(Cl)c(C)c(OC)cc4s3)cc(C)cc2n1 [Example 298, 4-chloro-6-methoxy-2-(2-(methoxymethyl)-7-methylquinoxalin-5-yl)-5-methylbenzo[d]thiazole]	2.1 nM
COc1cnc2c(-c3nc4c(Cl)c(C)c(OC)cc4s3)cc(C)cc2n1 [Example 299, 4-chloro-6-methoxy-2-(2-methoxy-7-methylquinoxalin-5-yl)-5-methylbenzo[d] thiazole]	10 nM
COCc1cnc2c(-c3nc4c(CO)c(C)c(OC)cc4s3)cc(C)cc2n1 [Example 300]	0.9 nM
COc1cnc2c(-c3nc4c(CO)c(C)c(OC)cc4s3)cc(C)cc2n1 [Example 301]	15 nM
COc1cnc2c(-c3nc4c(C)c(F)c(OCCOC(=O)Nc5ccc(F)nc5)cc4s3)cc(C)cc2n1 [Example 302, 2-((5-fluoro-2-(2-methoxy-7-methylquinoxalin-5-yl)-4-methylbenzo[d]thiazol-6-yl)oxy)ethyl (6-fluoropyridin-3-yl)carbamate]	3.2 nM
